Among the data in patent US4786755A, “Diphenic acid monoamides” (Warner-Lambert Company, priority 1986, dated 1988) are IC50 values, retold here.

Each structure is given as a SMILES string.

For this experiment, the target named is T1, leukotriene receptor (Cavia porcellus, UniProt Q2NNR5).
T1 construct: 20 mg original tissue wet weight of guinea pig lung membranes; tissue Kuiper Rabbit Farm, Gary, IN (animals); host or cells: guinea pig lung, crude membranes
T1 sequence (Q2NNR5 1-340): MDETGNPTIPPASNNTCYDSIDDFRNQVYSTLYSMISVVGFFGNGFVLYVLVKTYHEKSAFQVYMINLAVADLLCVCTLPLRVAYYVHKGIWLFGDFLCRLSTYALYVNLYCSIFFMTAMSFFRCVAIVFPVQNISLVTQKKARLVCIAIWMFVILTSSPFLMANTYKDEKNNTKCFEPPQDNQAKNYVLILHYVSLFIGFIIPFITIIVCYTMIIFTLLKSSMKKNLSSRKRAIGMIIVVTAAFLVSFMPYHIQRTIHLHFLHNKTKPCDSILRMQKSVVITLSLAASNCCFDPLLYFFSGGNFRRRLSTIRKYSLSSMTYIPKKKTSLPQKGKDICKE
The experiment in a line: Binding of ^3 H-Leukotriene D4 to Guinea Pig Lung Membranes (RBL). The following applies: ^3 H-LTD4, guinea pig lung membranes; read-out: IC50 RBL1. The procedure: Additionally, the activity, of the compounds having the Formula I of the present invention is determined by the well known leukotriene receptor binding assay that is described by R. F. Bruns, W. J. Thomsen and T. A. Pugsley in Life Sciences, 33, 645 (1983) or the Herxheimer in vivo antiallergy test described in H. Herxheimer, J. Physiol. (London), Vol. 177, p. 251 (1952).
Binding of ^3 H-Leukotriene D4 to Guinea Pig Lung Membranes (RBL)
[14,15-^3 H]leukotriene D4 (^3 H-LTD4) (25 Ci/mmol and 40 Ci/mmol) is purchased from New England Nuclear. Unlabeled LTC4 is a gift of Ono Pharmaceuticals (Japan). LTC4, LTD4, and LTE4 are purchased as methyl esters from Paesel GmbH (Frankfurt, W. Germany). Concentrations of the Paesel leukotrienes are calculated from their absorbance at 280 nm. Leukotriene esters are saponified overnight under N2 in 3.3% potassium carbonate at room temperature. Tritiated leukotrienes are stored as received from New England Nuclear at -20° C. Ono LTC4 (5 μg/ml is stored at -60° C. in phosphate buffer pH 6.8. Saponified Paesel leukotrienes are stored at -60° C. in 3.3% potassium carbonate (pH 9.0-9.5). Aliquots of leukotrienes are taken from stock solutions immediately after thawing, after which the stock solutions are immediately refrozen. 2-Amino-2-(hydroxymethyl)-1,3-propanediol (Tris) is Sigma pH 7.7 pre-set crystals, and dimethylsulfoxide is Aldrich Gold Label.
Preparation of crude lung membranes
Two pairs of lungs (1.3 g) from freshly sacrificed 300 g male guinea pigs (older animals gave substantially lower binding) from Kuiper Rabbit Farm, Gary, IN are disrupted with a Polytron PT 10 (setting 4) for 30 seconds in 20 ml ice-cold 50 mM Tris adjusted with HCl to pH 7.7 at 25° C. (Tris buffer), filtered through a single layer of gauze to remove connective tissue, and centrifuged at 50,000 xg for ten min. The pellet is resuspended by homogenization with a Polytron in 20 ml Tris buffer, centrifuged at 50,000 xg for ten min., resuspended, incubated at 37° C. for 30 minutes, and centrifuged again. The final pellet is resuspended in Tris buffer and either used fresh or stored at -70° C.
All incubations are in triplicate for 60 minutes at 25° C. in 12×75 mm polystyrene tubes containing 1 ml Tris buffer with 20 mg original tissue wet weight of guinea pig lung membranes, 0.2 nM ^3 H-LTD4 (6,000-11,000 cpm), 10 mM MgCl2, and 1% dimethylsulfoxide. Leukotrienes are diluted in Tris buffer. All other test compounds are dissolved at 10 mM in dimethylsulfoxide on the same day as the experiment, and diluted in dimethylsulfoxide to 100× the final incubation concentration. Control incubations receive an equal volume (10 μl) of dimethylsulfoxide; the resulting concentration of dimethylsulfoxide had no effect on binding. ^3 H-LTD4 is diluted to 2 nM in Tris buffer. The membrane suspension (20 mg/0.89 ml) contains sufficient MgCl2 to give 10 mM final concentration in the incubation. […] All additions are performed at 0° C. Immediately after the last addition, the incubation is initiated by agitating the rack of tubes on a vortex mixer and warming to 25° C. in a water bath. Tubes are vortexed at least once more during the incubation to ensure that the membranes remained suspended. Incubations are terminated after 60 minutes by filtering under reduced pressure through 25 mm Whatman GF/B filters followed by rapid washing three times with 4 ml of ice-cold Tris buffer. Filters are added to scintillation vials with 8 ml Formula 947 (New England Nuclear), left overnight, shaken, and the radioactivity counted in a scintillation counter (efficiency 40%). Nonspecific binding, defined as binding of ^3 H-LTD4 in the presence of 100 nM LTC4, is 300-500 cpm for all lots of ^3 H-LTD4. Binding to the filters in the absence of tissue is about 100 cpm, and is not affected by unlabeled LTC4. Specific binding, defined as total binding minus nonspecific binding, varied considerably from lot to lot of ^3 H-LTD4. […]
As to `CN(C(=O)c1ccccc1-c1ccccc1C(=O)O)c1ccc(CCc2ccc(Cl)c(Cl)c2)cc1` [Example 5, [1,1'-Biphenyl]-2-carboxylic acid, 2'-[[[4-[2-(3,4-dichlorophenyl)ethyl]phenyl]methylamino]carbonyl]-], the IC50 was determined as 14.5 µM.
For `O=C(O)c1ccccc1-c1ccccc1C(=O)Nc1ccc(OCCCc2ccccc2)cc1` [Example 2] the value was 4.6 µM; for `O=C(O)c1ccccc1-c1ccccc1C(=O)Nc1ccc(CCCc2ccccc2)cc1` [Example 16, [1,1'-Biphenyl]-2-carboxylic acid, 2'-[[[4-(3-phenylpropyl]phenyl]amino]carbonyl]-], 4.3 µM.
The same measure for `O=C(O)c1ccccc1-c1ccccc1C(=O)Nc1ccc(CCCCc2ccccc2)cc1` [Example 19, [1,1'-Biphenyl]-2-carboxylic acid, 2'-[[[4-(4-phenylbutyl)phenyl]amino]carbonyl]-]: 6.7 µM; for `O=C(O)c1ccccc1-c1ccccc1C(=O)Nc1ccc(CCc2ccc(Cl)c(Cl)c2)cc1` [Example 3, [1,1'-Biphenyl]-2-carboxylic acid, 2'-[[[4-[2-(3,4-dichlorophenyl)ethyl]phenyl]amino]carbonyl]-]: 4.8 µM.
As for `O=C(O)c1ccccc1-c1ccccc1C(=O)Nc1ccc(CCCc2ccc(Cl)c(Cl)c2)cc1` [Example 1, [1,1'-Biphenyl]-2-carboxylic acid, 2'-[[[4-[3-(3,4-dichlorophenyl)propyl]phenyl]amino]carbonyl]-], the IC50 was 1 µM.
For the compound `O=C(O)c1ccccc1-c1ccccc1C(=O)Nc1ccc(Cc2ccc(Cl)c(Cl)c2)cc1` [Example 9], the concentration for half-maximal inhibition (IC50) is 6.5 µM.
For `O=C(O)c1ccccc1-c1ccccc1C(=O)Nc1cccc(CCc2ccc(Cl)c(Cl)c2)c1` [Example 4, [1,1'-Biphenyl]-2-carboxylic acid, 2'-[[[3-[2-(3,4-dichlorophenyl)ethyl]phenyl]amino]carbonyl]-] the value was 8.5 µM; for `CN(C(=O)c1ccccc1-c1ccccc1C(=O)O)c1ccc(CCc2ccc(Cl)cc2)cc1` [Example 8], 28.7 µM; for `COc1ccc(CCc2ccc(NC(=O)c3ccccc3-c3ccccc3C(=O)O)cc2)cc1OC` [Example 7, [1,1'-Biphenyl]-2-carboxylic acid, 2'-[[[4-[2-(3,4-dimethoxyphenyl)ethyl]phenyl]amino]carbonyl]-], 88.7 µM.
The same measure for `O=C(O)c1ccccc1-c1ccccc1C(=O)Nc1ccc(CCCCc2ccc(Cl)c(Cl)c2)cc1` [Example 15, [1,1'-Biphenyl]-2-carboxylic acid, 2'-[[[4-[4-(3,4-dichlorophenyl)butyl]phenyl]amino]carbonyl]-]: 4.2 µM; for `O=C(O)c1ccccc1-c1ccccc1C(=O)Nc1ccc(CCCCCc2ccccc2)cc1` [Example 21, [1,1'-Biphenyl]-2-carboxylic acid, 2'-[[[4-(5-phenylpentyl)phenyl]amino]carbonyl]-]: 2.3 µM.
For `O=C(O)c1ccccc1-c1ccccc1C(=O)Nc1ccc(CCc2ccc(Cl)cc2)cc1` [Example 11, [1,1'-Biphenyl]-2-carboxylic acid, 2'-[[4-[2-[(4-chlorophenyl)ethyl]phenyl]amino]carbonyl]-] the value was 13.5 µM.

Broadly, the IC50 is the concentration that inhibits the measured activity by half.
